Key:
[1] = molecular target: T1, Progesterone receptor (Homo sapiens, UniProt P06401); experiment: Inhibition of 4 nM progesterone-stimulated transactivation of MMTV-Luc reporter in CV-1 cells expressing PR-B; format: functional, cell-based
T1 sequence (P06401 whole entry): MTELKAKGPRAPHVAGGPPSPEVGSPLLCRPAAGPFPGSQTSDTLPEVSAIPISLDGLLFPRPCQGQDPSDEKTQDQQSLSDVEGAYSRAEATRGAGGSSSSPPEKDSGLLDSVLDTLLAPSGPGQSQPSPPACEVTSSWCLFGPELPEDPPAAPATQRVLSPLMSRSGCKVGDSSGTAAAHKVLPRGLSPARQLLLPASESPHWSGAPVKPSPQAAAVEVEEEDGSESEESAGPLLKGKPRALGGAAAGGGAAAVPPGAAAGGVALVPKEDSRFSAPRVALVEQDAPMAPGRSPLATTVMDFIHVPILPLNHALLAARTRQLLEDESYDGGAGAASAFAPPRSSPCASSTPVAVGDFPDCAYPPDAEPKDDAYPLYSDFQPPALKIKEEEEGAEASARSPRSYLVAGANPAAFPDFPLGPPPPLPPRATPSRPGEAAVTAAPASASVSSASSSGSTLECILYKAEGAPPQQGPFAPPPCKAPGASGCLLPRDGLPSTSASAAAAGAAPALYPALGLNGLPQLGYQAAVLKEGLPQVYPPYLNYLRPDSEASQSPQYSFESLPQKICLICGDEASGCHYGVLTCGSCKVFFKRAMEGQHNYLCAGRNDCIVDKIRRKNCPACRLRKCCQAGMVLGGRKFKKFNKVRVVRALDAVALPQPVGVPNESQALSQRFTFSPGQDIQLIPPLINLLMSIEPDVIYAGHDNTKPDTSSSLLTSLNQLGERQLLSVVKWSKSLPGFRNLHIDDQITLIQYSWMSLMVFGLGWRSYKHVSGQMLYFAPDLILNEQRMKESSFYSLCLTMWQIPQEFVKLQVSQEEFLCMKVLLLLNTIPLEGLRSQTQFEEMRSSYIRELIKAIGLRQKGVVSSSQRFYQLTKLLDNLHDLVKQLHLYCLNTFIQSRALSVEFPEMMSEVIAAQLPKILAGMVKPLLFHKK

[2] = molecular target: T1, Progesterone receptor; experiment: Displacement of fluorescent ligand from binding domain of progesterone receptor

Compound | Log IC50 [1] | Ki [2] [nM]
C[C@H]1CN(S(=O)(=O)c2ccc(Cl)cc2)N=C1c1ccc(Cl)c(Cl)c1 | -7.6 | 20
CN(C)c1ccc([C@H]2CN(S(=O)(=O)c3ccc(Cl)cc3)N=C2c2ccc(Cl)c(Cl)c2)cc1 | > -5.5 | > 10000
CC1CC(c2ccc(Cl)c(Cl)c2)=NN1S(=O)(=O)c1ccc(Cl)cc1 (stereo unspecified) | -6.7 | 39.8
O=S(=O)(c1ccc(Cl)cc1)N1CC(c2ccccc2)C(c2ccc(Cl)c(Cl)c2)=N1 (stereo unspecified) |  | 100
CN(C)c1ccc(C2CN(S(=O)(=O)c3ccc(Cl)cc3)N=C2c2ccc(Cl)c(Cl)c2)cc1 (stereo unspecified) | -6.1 | 39.8
O=S(=O)(c1ccc(Cl)cc1)N1N=C(c2ccc(Cl)c(Cl)c2)CC1c1ccccc1 (stereo unspecified) | -6.4 | 7940
CC1CN(S(=O)(=O)c2ccc(Cl)cc2)N=C1c1ccc(Cl)c(Cl)c1 (stereo unspecified) |  | 39.8
C[C@@H]1CN(S(=O)(=O)c2ccc(Cl)cc2)N=C1c1ccc(Cl)c(Cl)c1 | -5.3 | 2000
CN(C)c1ccc([C@@H]2CN(S(=O)(=O)c3ccc(Cl)cc3)N=C2c2ccc(Cl)c(Cl)c2)cc1 | -5.8 | 100

From ChEMBL document CHEMBL1139572 (Bioorg Med Chem Lett, 2005)
